Laboratory results from patent publication US10351546B2, “Pyridin-3-yl acetic acid derivatives as inhibitors of human immunodeficiency virus replication” (priority 2015, dated 2019).
pEC50: −log10 of the molar value.

tested on: NL-RLuc virus; test: Inhibition of HIV replication (NL-RLuc luciferase reporter virus in MT-2 cells); assay type: cell-based; settings: Human immunodeficiency virus 1, MT2, 120 h, read-out: Activity
In short: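 MT-2 cells were infected with NL4-3-derived virus carrying Renilla luciferase in place of part of nef, in RPMI/10% FBS, with serial compound dilutions. Luciferase read after 5 days of multicycle replication. EC50 from the median effect equation, at least 2 experiments.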

Row | SMILES | pEC50
1 | Cc1cc(F)ccc1CN1CCc2cc(-c3c(CN4CCC4)nc(C)c([C@H](OC(C)(C)C)C(=O)O)c3N3CCC(C)(C)CC3)ccc2C1 [Example 117, (S)-2-(6-(Azetidin-1-ylmethyl)-4-(4,4-dimethylpiperidin-1-yl)-5-(2-(4-fluoro-2-methylbenzyl)-1,2,3,4-tetrahydroisoquinolin-6-yl)-2-methylpyridin-3-yl)-2-(tert-butoxy)acetic acid] | > 7.00
2 | Cc1cc(F)ccc1CN1CCc2cc(-c3c(CN4CCCC4)nc(C)c([C@H](OC(C)(C)C)C(=O)O)c3N3CCC(C)(C)CC3)ccc2C1 [Example 118, (S)-2-(tert-Butoxy)-2-(4-(4,4-dimethylpiperidin-1-yl)-5-(2-(4-fluoro-2-methylbenzyl)-1,2,3,4-tetrahydroisoquinolin-6-yl)-2-methyl-6-(pyrrolidin-1-ylmethyl)pyridin-3-yl)acetic acid] | > 7.00
3 | Cc1cc(F)ccc1CN1CCc2cc(-c3c(CN4CCCCC4)nc(C)c([C@H](OC(C)(C)C)C(=O)O)c3N3CCC(C)(C)CC3)ccc2C1 [Example 119, (S)-2-(tert-Butoxy)-2-(4-(4,4-dimethylpiperidin-1-yl)-5-(2-(4-fluoro-2-methylbenzyl)-1,2,3,4-tetrahydroisoquinolin-6-yl)-2-methyl-6-(piperidin-1-ylmethyl)pyridin-3-yl)acetic acid] | > 7.00
4 | Cc1cc(F)ccc1CN1CCc2cc(-c3c(CN4CCC(C)(C)CC4)nc(C)c([C@H](OC(C)(C)C)C(=O)O)c3N3CCC(C)(C)CC3)ccc2C1 [Example 120, (S)-2-(tert-Butoxy)-2-(4-(4,4-dimethylpiperidin-1-yl)-6-((4,4-dimethylpiperidin-1-yl)methyl)-5-(2-(4-fluoro-2-methylbenzyl)-1,2,3,4-tetrahydroisoquinolin-6-yl)-2-methylpyridin-3-yl)acetic acid] | > 7.00
5 | Cc1cc(F)ccc1CN1CCc2cc(-c3c(CN4CCOCC4)nc(C)c([C@H](OC(C)(C)C)C(=O)O)c3N3CCC(C)(C)CC3)ccc2C1 [Example 121, (S)-2-(tert-Butoxy)-2-(4-(4,4-dimethylpiperidin-1-yl)-5-(2-(4-fluoro-2-methylbenzyl)-1,2,3,4-tetrahydroisoquinolin-6-yl)-2-methyl-6-(morpholinomethyl)pyridin-3-yl)acetic acid] | > 7.00
6 | Cc1cc(F)ccc1CN1CCc2cc(-c3c(CN4CCSCC4)nc(C)c([C@H](OC(C)(C)C)C(=O)O)c3N3CCC(C)(C)CC3)ccc2C1 [Example 122, (S)-2-(tert-Butoxy)-2-(4-(4,4-dimethylpiperidin-1-yl)-5-(2-(4-fluoro-2-methylbenzyl)-1,2,3,4-tetrahydroisoquinolin-6-yl)-2-methyl-6-(thiomorpholinomethyl)pyridin-3-yl)acetic acid] | > 7.00
7 | Cc1cc(F)ccc1CN1CCc2cc(-c3c(CN4CCS(=O)(=O)CC4)nc(C)c([C@H](OC(C)(C)C)C(=O)O)c3N3CCC(C)(C)CC3)ccc2C1 [Example 123, (S)-2-(tert-Butoxy)-2-(4-(4,4-dimethylpiperidin-1-yl)-6-((1,1-dioxidothiomorpholino)methyl)-5-(2-(4-fluoro-2-methylbenzyl)-1,2,3,4-tetrahydroisoquinolin-6-yl)-2-methylpyridin-3-yl)acetic acid] | > 7.00
8 | Cc1cc(F)ccc1CN1CCc2cc(-c3c(CNCc4ccncc4)nc(C)c([C@H](OC(C)(C)C)C(=O)O)c3N3CCC(C)(C)CC3)ccc2C1 [Example 124, (S)-2-(tert-Butoxy)-2-(4-(4,4-dimethylpiperidin-1-yl)-5-(2-(4-fluoro-2-methylbenzyl)-1,2,3,4-tetrahydroisoquinolin-6-yl)-2-methyl-6-(((pyridin-4-ylmethyl)amino)methyl)pyridin-3-yl)acetic acid] | > 7.00
9 | CC[N+](CC)(CC)Cc1nc(C)c([C@H](OC(C)(C)C)C(=O)O)c(N2CCC(C)(C)CC2)c1-c1ccc2c(c1)CCN(Cc1ccc(F)cc1C)C2 [Example 125, (S)—N-((5-(tert-Butoxy(carboxy)methyl)-4-(4,4-dimethylpiperidin-1-yl)-3-(2-(4-fluoro-2-methylbenzyl)-1,2,3,4-tetrahydroisoquinolin-6-yl)-6-methylpyridin-2-yl)methyl)-N,N-diethylethanaminium] | > 7.00
10 | Cc1cc(F)ccc1CN1CCc2cc(-c3c(CNCc4cccnc4)nc(C)c([C@H](OC(C)(C)C)C(=O)O)c3N3CCC(C)(C)CC3)ccc2C1 [Example 126, (S)-2-(tert-Butoxy)-2-(4-(4,4-dimethylpiperidin-1-yl)-5-(2-(4-fluoro-2-methylbenzyl)-1,2,3,4-tetrahydroisoquinolin-6-yl)-2-methyl-6-(((pyridin-3-ylmethyl)amino)methyl)pyridin-3-yl)acetic acid] | > 7.00
11 | Cc1cc(F)ccc1CN1CCc2cc(-c3c(CNCC4CCOCC4)nc(C)c([C@H](OC(C)(C)C)C(=O)O)c3N3CCC(C)(C)CC3)ccc2C1 [Example 127, (S)-2-(tert-Butoxy)-2-(4-(4,4-dimethylpiperidin-1-yl)-5-(2-(4-fluoro-2-methylbenzyl)-1,2,3,4-tetrahydroisoquinolin-6-yl)-2-methyl-6-((((tetrahydro-2H-pyran-4-yl)methyl)amino)methyl)pyridin-3-yl)acetic acid] | > 7.00
12 | Cc1cc(F)ccc1CN1CCc2cc(-c3c(CN4CCC(F)(F)CC4)nc(C)c([C@H](OC(C)(C)C)C(=O)O)c3N3CCC(C)(C)CC3)ccc2C1 [Example 128, (S)-2-(tert-Butoxy)-2-(6-((4,4-difluoropiperidin-1-yl)methyl)-4-(4,4-dimethylpiperidin-1-yl)-5-(2-(4-fluoro-2-methylbenzyl)-1,2,3,4-tetrahydroisoquinolin-6-yl)-2-methylpyridin-3-yl)acetic acid] | > 7.00
13 | Cc1cc(F)ccc1CN1CCc2cc(-c3c(CN4CCCC(F)(F)C4)nc(C)c([C@H](OC(C)(C)C)C(=O)O)c3N3CCC(C)(C)CC3)ccc2C1 [Example 129, (S)-2-(tert-Butoxy)-2-(6-((3,3-difluoropiperidin-1-yl)methyl)-4-(4,4-dimethylpiperidin-1-yl)-5-(2-(4-fluoro-2-methylbenzyl)-1,2,3,4-tetrahydroisoquinolin-6-yl)-2-methylpyridin-3-yl)acetic acid] | > 7.00
14 | Cc1cc(F)ccc1CN1CCc2cc(-c3c(CN4CCC(F)CC4)nc(C)c([C@H](OC(C)(C)C)C(=O)O)c3N3CCC(C)(C)CC3)ccc2C1 [Example 130, (S)-2-(tert-Butoxy)-2-(4-(4,4-dimethylpiperidin-1-yl)-5-(2-(4-fluoro-2-methylbenzyl)-1,2,3,4-tetrahydroisoquinolin-6-yl)-6-((4-fluoropiperidin-1-yl)methyl)-2-methylpyridin-3-yl)acetic acid] | > 7.00
15 | Cc1cc(F)ccc1CN1CCc2cc(-c3c(CN4CCCC(F)C4)nc(C)c([C@H](OC(C)(C)C)C(=O)O)c3N3CCC(C)(C)CC3)ccc2C1 (stereo partly drawn) [Example 131, (2S)-2-(tert-Butoxy)-2-(4-(4,4-dimethylpiperidin-1-yl)-5-(2-(4-fluoro-2-methylbenzyl)-1,2,3,4-tetrahydroisoquinolin-6-yl)-6-((3-fluoropiperidin-1-yl)methyl)-2-methylpyridin-3-yl)acetic acid] | > 7.00
16 | Cc1cc(F)ccc1CN1CCc2cc(-c3c(CN4CC[C@H](F)C4)nc(C)c([C@H](OC(C)(C)C)C(=O)O)c3N3CCC(C)(C)CC3)ccc2C1 [Example 132, (S)-2-(tert-Butoxy)-2-(4-(4,4-dimethylpiperidin-1-yl)-5-(2-(4-fluoro-2-methylbenzyl)-1,2,3,4-tetrahydroisoquinolin-6-yl)-6-(((S)-3-fluoropyrrolidin-1-yl)methyl)-2-methylpyridin-3-yl)acetic acid] | > 7.00
17 | Cc1cc(F)ccc1CN1CCc2cc(-c3c(CN4CC[C@@H](F)C4)nc(C)c([C@H](OC(C)(C)C)C(=O)O)c3N3CCC(C)(C)CC3)ccc2C1 [Example 133, (S)-2-(tert-Butoxy)-2-(4-(4,4-dimethylpiperidin-1-yl)-5-(2-(4-fluoro-2-methylbenzyl)-1,2,3,4-tetrahydroisoquinolin-6-yl)-6-(((R)-3-fluoropyrrolidin-1-yl)methyl)-2-methylpyridin-3-yl)acetic acid] | > 7.00
18 | Cc1cc(F)ccc1CN1CCc2cc(-c3c(CN4CCC5(CCC5)CC4)nc(C)c([C@H](OC(C)(C)C)C(=O)O)c3N3CCC(C)(C)CC3)ccc2C1 [Example 134, (S)-2-(6-(7-Azaspiro[3.5]nonan-7-ylmethyl)-4-(4,4-dimethylpiperidin-1-yl)-5-(2-(4-fluoro-2-methylbenzyl)-1,2,3,4-tetrahydroisoquinolin-6-yl)-2-methylpyridin-3-yl)-2-(tert-butoxy)acetic acid] | > 7.00
19 | Cc1cc(F)ccc1CN1CCc2cc(-c3c(CN4CCC(O)CC4)nc(C)c([C@H](OC(C)(C)C)C(=O)O)c3N3CCC(C)(C)CC3)ccc2C1 [Example 135, (S)-2-(tert-Butoxy)-2-(4-(4,4-dimethylpiperidin-1-yl)-5-(2-(4-fluoro-2-methylbenzyl)-1,2,3,4-tetrahydroisoquinolin-6-yl)-6-((4-hydroxypiperidin-1-yl)methyl)-2-methylpyridin-3-yl)acetic acid] | > 7.00
20 | Cc1cc(F)ccc1CN1CCc2cc(-c3c(CN4CCN(C)CC4)nc(C)c([C@H](OC(C)(C)C)C(=O)O)c3N3CCC(C)(C)CC3)ccc2C1 [Example 136, (S)-2-(tert-Butoxy)-2-(4-(4,4-dimethylpiperidin-1-yl)-5-(2-(4-fluoro-2-methylbenzyl)-1,2,3,4-tetrahydroisoquinolin-6-yl)-2-methyl-6-((4-methylpiperazin-1-yl)methyl)pyridin-3-yl)acetic acid] | > 7.00
21 | Cc1cc(F)ccc1CN1CCc2cc(-c3c(CN(C)CC4CCOCC4)nc(C)c([C@H](OC(C)(C)C)C(=O)O)c3N3CCC(C)(C)CC3)ccc2C1 [Example 137, (S)-2-(tert-Butoxy)-2-(4-(4,4-dimethylpiperidin-1-yl)-5-(2-(4-fluoro-2-methylbenzyl)-1,2,3,4-tetrahydroisoquinolin-6-yl)-2-methyl-6-((methyl((tetrahydro-2H-pyran-4-yl)methyl)amino)methyl)pyridin-3-yl)acetic acid] | > 7.00

same assay, conditions: Human immunodeficiency virus 1, MT2, 120 h, read-out: EC50 μM

Row | SMILES | EC50
22 | Cc1cc(F)ccc1CN1CCc2cc(-c3c(CN4CCCC4)nc(C)c([C@H](OC(C)(C)C)C(=O)O)c3N3CCC(C)(C)CC3)ccc2C1 [Example 118, (S)-2-(tert-Butoxy)-2-(4-(4,4-dimethylpiperidin-1-yl)-5-(2-(4-fluoro-2-methylbenzyl)-1,2,3,4-tetrahydroisoquinolin-6-yl)-2-methyl-6-(pyrrolidin-1-ylmethyl)pyridin-3-yl)acetic acid] | 0.002 µM
23 | CC[N+](CC)(CC)Cc1nc(C)c([C@H](OC(C)(C)C)C(=O)O)c(N2CCC(C)(C)CC2)c1-c1ccc2c(c1)CCN(Cc1ccc(F)cc1C)C2 [Example 125, (S)—N-((5-(tert-Butoxy(carboxy)methyl)-4-(4,4-dimethylpiperidin-1-yl)-3-(2-(4-fluoro-2-methylbenzyl)-1,2,3,4-tetrahydroisoquinolin-6-yl)-6-methylpyridin-2-yl)methyl)-N,N-diethylethanaminium] | 0.016 µM
24 | Cc1cc(F)ccc1CN1CCc2cc(-c3c(CN4CCC5(CCC5)CC4)nc(C)c([C@H](OC(C)(C)C)C(=O)O)c3N3CCC(C)(C)CC3)ccc2C1 [Example 134, (S)-2-(6-(7-Azaspiro[3.5]nonan-7-ylmethyl)-4-(4,4-dimethylpiperidin-1-yl)-5-(2-(4-fluoro-2-methylbenzyl)-1,2,3,4-tetrahydroisoquinolin-6-yl)-2-methylpyridin-3-yl)-2-(tert-butoxy)acetic acid] | 0.001 µM
